# Measured values: patent publication US7208309B2, “Inhibitor-resistant HCV NS3 protease” (priority 2002, dated 2007)
# Like-named read-outs stand apart in the source and are kept apart here. Numbered stars: 1 amine (or outer) side, 2 acyl side, 3 side chain; on linkers, the order of the positions; unused ones are H or OH. Square brackets hold non-standard residues; d marks the D form. Peptide text beside a SMILES is read from it. * marks the point of attachment. Hyp(2-Ph-quinolin-4-yl) = O=C(O)[C@@H]1C[C@@H](Oc2cc(-c3ccccc3)nc3ccccc23)CN1; X1 = C=CC1C[C@]1(N[*:1])C(=O)[*:2]; Hyp = O=C(O)[C@@H]1C[C@@H](O)CN1; Chg = N[C@H](C(=O)O)C1CCCCC1; Tle = CC(C)(C)[C@H](N)C(=O)O; Nva = CCC[C@H](N)C(=O)O; Bn = c1ccc(C*)cc1
# How the values were obtained:
# NS3-NS4A protein A156T = biological target: T1, NS3-NS4A protein A156T (Hepatitis C virus genotype 1b, UniProt Q9WMX2, A1182T); experiment: In vitro enzyme assay, Ki, full length NS3/NS4A protein A156T; format: biochemical, HCV genotype 1b
# T1 construct: TEV protease cleavage site (N); made in house; host or cells: E. coli (pET11a)
# Source text: (§1) DNA encoding the NS3-NS4A coding region of HCV genotype 1b, that includes a 28-residue N-terminal sequence containing a hexahistidine tag and a TEV protease cleavage (Pause, A. et al. (2003) J. Biol. Chem. 278: 20374–20380) was amplified by PCR and then subcloned into the pET11a bacterial expression vector. Amino acid substitutions A156T and D168V were introduced into the NS3-NS4A coding region using standard site-directed mutagenesis procedures.
# (§2) The NS3 protease domain (harboring A156T or D168V or R155Q mutations) were expressed in E. coli and purified as previously described (LaPlante, S. R. et al (1999) J. Biol. Chem. 274: 18618–18624). […]
# (§3) Ki determination—The inhibition constant (Ki) was determined using the depsipeptide fluorogenic substrate anthranilyl-DDIVPAbu[C(O)—O]AMY(3-NO2)TW-OH. The cleavage reaction was continuously monitored at 23° C. on a BMG POLARstar® Galaxy fluorometer, equipped with excitation and emission filters of 320 and 405 nm respectively. […] IC50's were obtained from a non-linear curve fit using the Hill model applied to the % inhibition-concentration data and calculated through the use of SAS (Statistical Software System, SAS Institute Inc., Cary, N.C.).
# [1] = system: bicistronic subgenomic HCV RNA replicon (S22.3 cell line); experiment: HCV RNA replicon cell culture EC50 of the inhibitors used for selection; format: cell-based; conditions: EC50 stated for the inhibitor used in resistance selection, replicon cells
# Source text: The method described by Lohmann et al. (1999, Science 285:110) was used to mimic the replication of subgenomic HCV RNA in a system that is dependent on the function of HCV non-structural proteins and enzymes. This HCV RNA replicon system incorporates two cistrons: one encoding the HCV non-structural region and the second encoding a selectable neomycin resistant marker (i.e. gene encoding neomycin phosphotransferase). As one of skill in the art will appreciate, the second cistron may encode any marker suitable for selection purposes. Cell lines harboring such bicistronic, subgenomic HCV RNA, such as the S22.3 cell line, are described by Kukolj and Pause (see WO 02/052015, the contents of which are hereby incorporated by reference). These cell lines are useful in evaluating the efficacy and potency of potential anti-HCV therapeutics that inhibit one or more of the HCV non-structural proteins.
# As shown, Huh-7 cells (8×10^6 cells) were transfected with the bicistronic subgenomic HCV RNA using transfection methods well-established in the art. Transfected Huh-7 cells were selected by growth in neomycin-containing media (0.5 mg/ml neomycin). Specifically, transfected cells replicate the RNA that produces neomycin phosphotransferase thereby rendering the cells resistant to the cytotoxic effect of neomycin. Mutated HCV replicons as described in WO 02/052015 can also be used in accordance with the present method to increase RNA replication and efficiency of replicon establishment.
# inhibitor A=cyclopropa[e]pyrrolo [1,2-a][1,4]diazacyclopentadecine-14a(5H)-carboxylic acid, 6-[[(cyclopentyloxy) carbonyl]amino]-1,2,3,6,7,8,9,10,11,13a, 14,15,16,16a-tetradecahydro-2-[[7-methoxy-2-[2-[(1-methylethyl)amino]-4-thiazolyl]-4-quinolinyl]oxy]-5,16-dioxo-, (2R,6S, 12Z, 13aS, 14aR, 16aS), which is described as compound #822 in WO 00/59929, the contents of which is hereby incorporated by reference. The colonies were grown in the presence of increasing concentrations of this inhibitor (EC50 of 2 nM) ranging from 2 nM to 2000 nM.
# [2] = system: NS3 D168V mutant HCV subgenomic replicon in Huh-7 cells; experiment: Inhibitor EC50 in NS3 D168V mutant replicon cell line; format: cell-based; conditions: Hepatitis C virus, Huh-7, read-out: EC50, D168V
# Source text: (§4) Specific isogenic HCV subgenomic replicon cDNAs individually containing only one of the inhibitor-resistant mutations, i.e. (in this example: A156T; or A156V; or D168V; or D168G) were cloned and corresponding in vitro transcribed RNA of these modified bi-cistronic replicons were generated. The mutant-encoding RNAs were used to construct mutant-containing replicon cell lines in naïve Huh-7 cells as described previously for other HCV replicons. […] They were also used to determine the level of inhibition of the mutant inhibitor-resistant cell lines in the presence of an unrelated HCV NS5B polymerase inhibitor or alpha-interferon. Using the assay described in WO 03/010141 (Example 48) the EC50 of each inhibitor was determined using the mutant cell lines.
# NS3-NS4A protein WT = biological target: T2, NS3-NS4A protein WT (Hepatitis C virus genotype 1b, UniProt Q9WMX2); experiment: In vitro enzyme assay, Ki, full length NS3/NS4A protein WT; format: biochemical, HCV genotype 1b
# T2 construct: TEV protease cleavage site (N); made in house; host or cells: E. coli (pET11a)
# Source text: as §1
# (§5) The NS3 protease domain (harboring A156T or D168V or R155Q mutations) were expressed in E. coli and purified as previously described (LaPlante, S. R. et al (1999) J. Biol. Chem. 274: 18618–18624). The NS3-NS4A proteins with either A156T or D168V mutation were also expressed in E. coli and the cell paste was resuspended in 5 mL of lysis buffer (50 mM sodium phosphate, pH 7.5, 20% glycerol, 1 mM EDTA, 0.5% Triton X-100, 0.5 M NaCl) per gram of cells, treated with DNase I, then clarified by a 30-min centrifugation at 150,000×g; the supernatant was diluted 2-fold in 50 mM sodium phosphate, pH 7.5, 0.5 M NaCl and imidazole was added to a final concentration of 25 mM. The NS3-NS4A complex solution was purified by successive steps on a Hi-Trap Ni^+2-chelating column, and poly(U)-Sepharose affinity column previously equilibrated in 50 mM sodium phosphate, pH 7.0, 10% glycerol, 0.2 M NaCl, 0.05% n-dodecyl-β-D-maltoside, 10 mM β-mercaptoethanol. The enzyme was eluted in the same buffer containing 2 M NaCl. The isolated enzymes were stored at −80° C.
# as §3
# [3] = biological target: T3, NS3 protease (1-180) D168V-NS4A peptide complex (Hepatitis C virus genotype 1b, UniProt Q9WMX2, D1194V); experiment: In vitro enzyme assay, Ki, NS3 protease-NS4A peptide complex D168V; format: biochemical, HCV; conditions: calculated Ki from IC50
# T3 construct: the NS3 protease (1–180) coding region for wild-type; made in house; host or cells: E. coli
# Source text: (§6) Alternatively, the NS3 protease (1–180) coding region for wild-type with the sequence ASKKKK at the C-terminus was cloned into a bacterial expression vector and amino acid substitutions A156T, D168V and R155Q were introduced as described above.
# as §2, §3
# [4] = biological target: T4, NS3 protease (1-180) A156T-NS4A peptide complex (Hepatitis C virus genotype 1b, UniProt Q9WMX2, A1182T); experiment: In vitro enzyme assay, Ki, NS3 protease-NS4A peptide complex A156T; format: biochemical, HCV; conditions: calculated Ki from IC50
# T4 construct: the NS3 protease (1–180) coding region for wild-type; made in house; host or cells: E. coli
# Source text: as §6, §2, §3
# [5] = biological target: T5, NS3 protease (1-180) WT-NS4A peptide complex (Hepatitis C virus genotype 1b, UniProt Q9WMX2); experiment: In vitro enzyme assay, Ki, NS3 protease-NS4A peptide complex WT; format: biochemical, HCV
# T5 construct: the NS3 protease (1–180) coding region for wild-type; made in house; host or cells: bacterial expression vector (E. coli)
# Source text: as §6, §2, §3
# NS3-NS4A protein D168V = biological target: T6, NS3-NS4A protein D168V (Hepatitis C virus genotype 1b, UniProt Q9WMX2, D1194V); experiment: In vitro enzyme assay, Ki, full length NS3/NS4A protein D168V; format: biochemical, HCV genotype 1b
# T6 construct: TEV protease cleavage site (N); made in house; host or cells: E. coli (pET11a)
# Source text: as §1, §5, §3
# [6] = system: NS3 A156V mutant HCV subgenomic replicon in Huh-7 cells; experiment: Inhibitor EC50 in NS3 A156V mutant replicon cell line; format: cell-based; conditions: Hepatitis C virus, Huh-7, read-out: EC50, A156V
# Source text: as §4
# [7] = system: NS3 D168G mutant HCV subgenomic replicon in Huh-7 cells; experiment: Inhibitor EC50 in NS3 D168G mutant replicon cell line; format: cell-based; conditions: Hepatitis C virus, Huh-7, read-out: EC50, D168G
# Source text: as §4
# [8] = biological target: T7, NS3 protease (1-180) R155Q-NS4A peptide complex (Hepatitis C virus genotype 1b, UniProt Q9WMX2, R1181Q); experiment: In vitro enzyme assay, Ki, NS3 protease-NS4A peptide complex R155Q; format: biochemical, HCV; conditions: calculated Ki from IC50
# T7 construct: the NS3 protease (1–180) coding region for wild-type; made in house; host or cells: E. coli
# Source text: as §6, §2, §3
# [9] = system: NS3 A156T mutant HCV subgenomic replicon in Huh-7 cells; experiment: Inhibitor EC50 in NS3 A156T mutant replicon cell line; format: cell-based; conditions: Hepatitis C virus, Huh-7, read-out: EC50, A156T
# Source text: as §4
# [10] = system: WT HCV subgenomic replicon in Huh-7 cells; experiment: Inhibitor EC50 in WT replicon cell line; format: cell-based; conditions: Hepatitis C virus
compound,measurement,setting,value
"COc1ccc2c(O[C@@H]3C[C@H]4C(=O)N[C@]5(C(=O)O)C[C@H]5/C=C\CCCCC[C@H](NC(=O)OC5CCCC5)C(=O)N4C3)cc(-c3csc(NC(C)C)n3)nc2c1 [inhibitor A, cyclopropa[e]pyrrolo [1,2-a][1,4]diazacyclopentadecine-14a(5H)-carboxylic acid, 6-[[(cyclopentyloxy)carbonyl]amino]-1,2,3,6,7,8,9,10,11,13a, 14,15,16,16a-tetradecahydro-2-[[7-methoxy-2-[2-[(1-methylethyl)amino]-4-thiazolyl]-4-quinolinyl]oxy]-5,16-dioxo-, (2R,6S, 12Z, 13aS, 14aR, 16aS)]",Ki,"NS3-NS4A protein A156T; calculated Ki from IC50, read-out: Ki, A156T (calculated Ki from IC50)",870 nM
same,EC50,[1]; Hepatitis C virus,2 nM
same,EC50,[2],735 nM
same,Ki,NS3-NS4A protein WT,1.6 nM
same,Ki,[3],970 nM
same,Ki,[4],800 nM
same,Ki,[5],5.6 nM
same,Ki,"NS3-NS4A protein D168V; calculated Ki from IC50, read-out: Ki, D168V (calculated Ki from IC50)",520 nM
same,EC50,[6],324 nM
same,EC50,[7],23 nM
same,Ki,[8],220 nM
same,EC50,[9],547 nM
same,EC50,[10],0.9 nM
"COc1ccc2c(O[C@@H]3C[C@H]4C(=O)N[C@]5(C(=O)O)C[C@H]5/C=C\CCCCC[C@H](NC(=O)OC(C)(C)C)C(=O)N4C3)cc(-c3csc(NC(C)=O)n3)nc2c1 [inhibitor C, Cyclopropa[e]pyrrolo[1,2-a][1,4]-diazacyclopentadecine-14a(5H)-carboxylic acid, 2-[[2-[2-(acetylamino)-4-thiazolyl]-7-methoxy-4-quinolinyl]oxy]-6-[[(1,1-dimethylethoxy)carbonyl]amino]-1,2,3,6,7,8,9,10,11,13a,14,15,16,16a-tetradecahydro-5,16-dioxo-, (2R,6S, 12Z, 13aS, 14aR, 16aS)-]",EC50,[1],5 nM
C=CC1C[C@]1(NC(=O)[C@@H]1C[C@@H](Oc2cc(-c3ccccc3)nc3ccccc23)CN1C(=O)[C@@H](NC(=O)[C@@H](NC(=O)[C@@H](CCC(=O)O)NC(=O)[C@H](CC(=O)O)NC(C)=O)C1CCCCC1)C(C)(C)C)C(=O)O (some centres unmarked) [Compound F] (Ac-D[dE][Chg][Tle][Hyp(2-Ph-quinolin-4-yl)][X1]-OH),Ki,"NS3-NS4A protein A156T; read-out: Ki, A156T",29 nM
same,Ki,NS3-NS4A protein WT,0.047 nM
same,Ki,"NS3-NS4A protein D168V; read-out: Ki, D168V",12 nM
"C=C[C@@H]1C[C@]1(NC(=O)[C@@H]1C[C@@H](Oc2cc(-c3csc(NC(C)=O)n3)nc3cc(OC)ccc23)CN1C(=O)[C@@H](NC(=O)OC1CCCC1)C(C)(C)C)C(=O)O [inhibitor B, cyclopropane carboxylic acid, N-[(cyclopentyloxy)carbonyl]-3-methyl-L-valyl-(4R)-4-[[2-[2-(acetylamino)-4-thiazolyl]-7-methoxy-4-quinolinyl]oxy]-L-prolyl-1-amino-2-ethenyl-, (1R,2S)-]",EC50,[1],40 nM
CCC[C@H](NC(=O)[C@@H]1C[C@@H](OCc2ccccc2)CN1C(=O)[C@@H](NC(=O)[C@@H](NC(=O)[C@@H](CCC(=O)O)NC(=O)[C@H](CC(=O)O)NC(C)=O)[C@@H](C)CC)C(C)C)C(=O)O [Compound E] (Ac-D[dE]IV[Hyp](Bn)[Nva]-OH),Ki,NS3-NS4A protein WT,1600 nM
same,Ki,"NS3-NS4A protein D168V; read-out: Ki, D168V",8100 nM
